Values quoted from earlier work, collected in patent publication US20230022060A1, “TURKESTERONE HYDROXYPROPYL B-CYCLIC DEXTRIN COMPLEX AND METHOD OF MANUFACTURING THEREOF” (Gorilla Mind, LLC, priority 2021, published 2023).

What was measured:
[1] = 100 mL water at 25° C.
[2] = test system: Staphylococcus aureus, Bacillus subtilis and Escherichia coli; settings: three bacteria

| Compound | amount that can be dissolved in water [1] | difference of antimicrobial activity between chlorogenic acid and its complex [2] |
| --- | --- | --- |
| OC[C@H]1O[C@@H]2O[C@H]3[C@H](O)[C@@H](O)[C@@H](O[C@H]4[C@H](O)[C@@H](O)[C@@H](O[C@H]5[C@H](O)[C@@H](O)[C@@H](O[C@H]6[C@H](O)[C@@H](O)[C@@H](O[C@H]7[C@H](O)[C@@H](O)[C@@H](O[C@H]1[C@H](O)[C@H]2O)O[C@@H]7CO)O[C@@H]6CO)O[C@@H]5CO)O[C@@H]4CO)O[C@@H]3CO [α-cyclodextrin] | About 14 g in 100 mL water | – |
| O=C(/C=C/c1ccc(O)c(O)c1)O[C@@H]1C[C@](O)(C(=O)O)C[C@@H](O)[C@H]1O [chlorogenic acid] | – | No significant difference |
